Data published in ChEMBL document CHEMBL4002627, “Quinolidene based monocarbonyl curcumin analogues as promising antimycobacterial agents: Synthesis and molecular docking study” (Bioorg Med Chem Lett, 2017).
In brackets after ≈: the same amount, converted by molar mass.

Legend:
[1] = tested on: Mycobacterium tuberculosis; assay: Antimycobacterial activity against dormant state of Mycobacterium tuberculosis H37Ra by two fold dilution method; format: functional
[2] = tested on: Mycobacterium tuberculosis; assay: Antimycobacterial activity against dormant state of Mycobacterium tuberculosis H37Ra assessed as growth inhibition at 30 ug/ml after 12 days by XTT reduction menadione assay relative to control; format: functional; conditions: 288 h, read-out: GI
[3] = tested on: Mycobacterium tuberculosis; assay: Antimycobacterial activity against dormant state of Mycobacterium tuberculosis H37Ra assessed as growth inhibition at 10 ug/ml after 12 days by XTT reduction menadione assay relative to control; format: functional; conditions: 288 h, read-out: GI
[4] = tested on: Mycobacterium tuberculosis; assay: Antimycobacterial activity against dormant state of Mycobacterium tuberculosis H37Ra assessed as growth inhibition at 3 ug/ml after 12 days by XTT reduction menadione assay relative to control; format: functional; conditions: 288 h, read-out: GI
[5] = Cytotoxicity against human MCF7 cells assessed as growth inhibition at 30 ug/ml after 48 hrs by MTT assay relative to control; format: cell-based; conditions: read-out: GI
[6] = Cytotoxicity against human MCF7 cells assessed as growth inhibition at 10 ug/ml after 48 hrs by MTT assay relative to control; format: cell-based; conditions: read-out: GI
[7] = Cytotoxicity against human MCF7 cells assessed as growth inhibition at 3 ug/ml after 48 hrs by MTT assay relative to control; format: cell-based; conditions: read-out: GI
[8] = Cytotoxicity against human A549 cells assessed as growth inhibition at 30 ug/ml after 48 hrs by MTT assay relative to control; format: cell-based; conditions: read-out: GI
[9] = Cytotoxicity against human A549 cells assessed as growth inhibition at 10 ug/ml after 48 hrs by MTT assay relative to control; format: cell-based; conditions: read-out: GI
[10] = Cytotoxicity against human A549 cells assessed as growth inhibition at 3 ug/ml after 48 hrs by MTT assay relative to control; format: cell-based; conditions: read-out: GI
[11] = Cytotoxicity against human HCT116 cells assessed as growth inhibition at 30 ug/ml after 48 hrs by MTT assay relative to control; format: cell-based, HCT-116; conditions: read-out: GI
[12] = Cytotoxicity against human HCT116 cells assessed as growth inhibition at 10 ug/ml after 48 hrs by MTT assay relative to control; format: cell-based, HCT-116; conditions: read-out: GI
[13] = Cytotoxicity against human HCT116 cells assessed as growth inhibition at 3 ug/ml after 48 hrs by MTT assay relative to control; format: cell-based, HCT-116; conditions: read-out: GI
[14] = (§1) Cytotoxicity against human MCF7 cells assessed as growth inhibition after 48 hrs by MTT assay; format: cell-based; conditions: MCF7 cells
MCF7 = assay: as §1; format: cell-based; conditions: mcf7, 48 h
[15] = (§2) Cytotoxicity against human A549 cells assessed as growth inhibition after 48 hrs by MTT assay; format: cell-based; conditions: A549 cells
A549 = assay: as §2; format: cell-based; conditions: a549, 48 h
[16] = (§3) Cytotoxicity against human HCT116 cells assessed as growth inhibition after 48 hrs by MTT assay; format: cell-based, HCT-116; conditions: HCT116 cells
HCT-116 = assay: as §3; format: cell-based; conditions: hct-116, 48 h
[17] = Selectivity index, ratio of GI90 for human MCF7 cells to MIC90 for dormant state of Mycobacterium tuberculosis H37Ra; format: toxicity; conditions: read-out: Selectivity Index
[18] = Selectivity index, ratio of GI90 for human A549 cells to MIC90 for dormant state of Mycobacterium tuberculosis H37Ra; format: toxicity; conditions: read-out: Selectivity Index
[19] = Selectivity index, ratio of GI90 for human HCT116 cells to MIC90 for dormant state of Mycobacterium tuberculosis H37Ra; format: toxicity; conditions: read-out: Selectivity Index
[20] = Selectivity index, ratio of GI90 for human MCF7 cells to MIC90 for dormant state of dormant state of Mycobacterium bovis BCG; format: toxicity; conditions: read-out: Selectivity Index
[21] = Selectivity index, ratio of GI90 for human A549 cells to MIC90 for dormant state of dormant state of Mycobacterium bovis BCG; format: toxicity; conditions: read-out: Selectivity Index
[22] = Selectivity index, ratio of GI90 for human HCT116 cells to MIC90 for dormant state of dormant state of Mycobacterium bovis BCG; format: toxicity; conditions: read-out: Selectivity Index
Escherichia coli = assay: Antibacterial activity against Escherichia coli ATCC […] after 8 hrs; format: functional
Pseudomonas fluorescens = assay: Antibacterial activity against Pseudomonas fluorescens ATCC 13525 after 8 hrs; format: functional; conditions: ATCC 13525, 8 h
Staphylococcus aureus = assay: Antibacterial activity against Staphylococcus aureus ATCC 29213 after 12 hrs; format: functional; conditions: ATCC 29213, 12 h
Bacillus subtilis = assay: Antibacterial activity against Bacillus subtilis ATCC 23857 after 12 hrs; format: functional; conditions: ATCC 23857, 12 h

Row | SMILES | MIC50 [1] | MIC90 [1] | inhibition of growth at 30 µg/mL [2] | inhibition of growth at 10 µg/mL [3] | inhibition of growth at 3 µg/mL [4] | inhibition at 48 h, 30 ug/ml [5] | inhibition at 48 h, 10 ug/ml [6] | inhibition at 48 h, 3 ug/ml [7] | inhibition at 48 h, 30 ug/ml [8] | inhibition at 48 h, 10 ug/ml [9] | inhibition at 48 h, 3 ug/ml [10] | inhibition at 48 h, 30 ug/ml [11] | inhibition at 48 h, 10 ug/ml [12] | inhibition at 48 h, 3 ug/ml [13] | GI50 at 48 h [14] | GI90 (MCF7) | GI50 at 48 h [15] | GI90 (A549) | GI50 at 48 h [16] | GI90 (HCT-116) | further results
1 | COc1ccc2cc(/C=C3\CNC/C(=C\c4cc5ccc(OC)cc5nc4Cl)C3=O)c(Cl)nc2c1 | 2.8 µg/mL (≈ 5.53 µM) | > 30 µg/mL | 65.6% | 54.2% | 50.9% | 60.9% | 52.1% | 28% | 36.3% | 29.8% | 3.8% | 67.7% | 50.9% | 26.9% | > 100 µg/mL | > 100 µg/mL | > 100 µg/mL | > 100 µg/mL | > 100 µg/mL | > 100 µg/mL | selectivity ratio [17]: > 3; selectivity ratio [18]: > 3; selectivity ratio [19]: > 3; selectivity ratio [20]: > 37; selectivity ratio [21]: > 37; selectivity ratio [22]: > 37; MIC50 (Escherichia coli): > 30 µg/mL; MIC90 (Escherichia coli): > 30 µg/mL; MIC50 (Pseudomonas fluorescens): > 30 µg/mL; MIC90 (Pseudomonas fluorescens): > 30 µg/mL; MIC50 (Staphylococcus aureus): > 30 µg/mL; MIC90 (Staphylococcus aureus): > 30 µg/mL; MIC50 (Bacillus subtilis): > 30 µg/mL; MIC90 (Bacillus subtilis): > 30 µg/mL
2 | O=C1/C(=C/c2cc3cc(F)ccc3nc2Cl)CNC/C1=C\c1cc2cc(F)ccc2nc1Cl | 13.7 µg/mL (≈ 28.4 µM) | > 30 µg/mL | 76.9% | 49% | 41.1% | 48.5% | 41.1% | 40.9% | 0% | 0% | -5.8% | 55.8% | 45.3% | 35% | > 100 µg/mL | > 100 µg/mL | > 100 µg/mL | > 100 µg/mL | 27.6 µg/mL (≈ 57.1 µM) | > 100 µg/mL | selectivity ratio [17]: > 3; selectivity ratio [18]: > 3; selectivity ratio [19]: > 3; selectivity ratio [20]: > 10; selectivity ratio [21]: > 10; selectivity ratio [22]: > 10; MIC50 (Escherichia coli): > 30 µg/mL; MIC90 (Escherichia coli): > 30 µg/mL; MIC50 (Pseudomonas fluorescens): > 30 µg/mL; MIC90 (Pseudomonas fluorescens): > 30 µg/mL; MIC50 (Staphylococcus aureus): > 30 µg/mL; MIC90 (Staphylococcus aureus): > 30 µg/mL; MIC50 (Bacillus subtilis): > 30 µg/mL; MIC90 (Bacillus subtilis): > 30 µg/mL
